Seven compounds from patent US20130029970A1 (priority 2009, published 2013) can be followed below.

One experiment concerns the target T1, human CB2 receptors (Homo sapiens, UniProt P34972).
T1 construct: (cDNA clone) CNR0200000
As to the kind of experiment: cAMP assay in HEK-293 cells, hCB2 agonist. It is filed as cell-based. As to conditions: inhibition of forskolin-stimulated cAMP, HEK-293 cells; for EC50: read-out: hCB2 EC50 (cAMP ag). On the procedure: (§1) Functional assays which monitor G-protein coupled receptor or downstream cellular responses can be used to characterize potential CB1 receptor and/or CB2 receptor agonist or antagonist activities. Direct activation (or inhibition of activation) can be monitored using a GTPγS assay (membrane-based assay) or cAMP assay (whole cell-based assay).
cAMP assays were performed in HEK-293 cells stably expressing human CB1 or CB2 receptors. […] Cells suspensions were centrifuged and the cells were washed once with PBS, were centrifuged again, and the cells were re-suspended in HBSS (Hank's Balanced Salt Solution, Cellgro, Cat #21-022-CV) solution containing 10 mM HEPES and 0.1% fatty acid free BSA (Sigma, Cat #A0281). Cell suspensions were prepared at 1,500,000 cells per ml. Stock solutions of test substances (10 mM) in DMSO were diluted to 1 mM using 30% DMSO as diluent. Test substances of solutions (1 mM) were further diluted down to 3× of final assay concentrations in the above HBSS buffer containing 0.1% BSA in the presence of 90 uM forskolin (Sigma Cat#F6886). To perform the assay, 20 uL of cell suspension (1,500,000 cells/mL) were added to each well in 96 well plate and treated with 10 uL test substance solution diluted as described above. Cells and compounds were incubated at 37° C. for 30 minutes. Cells were lysed and cAMP concentration was measured using DiscoveRx −XS+ cAMP assay kit (DiscoveRx Corporation Ltd., Fremont, Calif., USA, Cat #90-0075-03), following the manufacturer's protocol. GraphPad Prism software was used to calculate EC50 values using sigmoidal dose response curve fitting. The maximal amount of cAMP produced by forskolin was defined as 100%.

A further experiment concerns the target T2, human CB1 receptors (Homo sapiens, UniProt P21554).
T2 construct: (cDNA clone) CNR01L000
Nature of the experiment: cAMP assay in HEK-293 cells, hCB1 agonist. The class given is cell-based. The conditions noted are these: inhibition of forskolin-stimulated cAMP, HEK-293 cells.
Text: Stable, HEK-293-derived cell lines that recombinantly express hCBI or hCB2 were established. In brief, the clone hCB1 (CNR IL) or hCB2 (CNR2) was transfected into human embryonic kidney cells (HEK-293) using Lipofectamine 2000 (Gibco, Cat#11668-019) according to the manufacturer's protocol. Transfected clones were isolated by single colony purification and clones were screened for receptor expression using a whole cell, ^3H—CP 55,940 radioligand binding assay. HEK-293 stable cells were maintained in Dulbecco's modified Eagles medium (DMEM) containing 10% fetal bovine serum, 2 mM L-glutamine and 0.5 mg/mL G-418.
as §1
cAMP assays were performed in HEK-293 cells stably expressing human CB1 or CB2 receptors. For cannabinoid receptor functional assays measuring agonist effects on cellular cAMP levels, monolayers of cultured cells were harvested with enzyme-free PBS-based cell dissociation buffer (Gibco, Cat#13151-04). Cells suspensions were centrifuged and the cells were washed once with PBS, were centrifuged again, and the cells were re-suspended in HBSS (Hank's Balanced Salt Solution, Cellgro, Cat #21-022-CV) solution containing 10 mM HEPES and 0.1% fatty acid free BSA (Sigma, Cat #A0281). Cell suspensions were prepared at 1,500,000 cells per ml. Stock solutions of test substances (10 mM) in DMSO were diluted to 1 mM using 30% DMSO as diluent. Test substances of solutions (1 mM) were further diluted down to 3× of final assay concentrations in the above HBSS buffer containing 0.1% BSA in the presence of 90 uM forskolin (Sigma Cat#F6886). To perform the assay, 20 uL of cell suspension (1,500,000 cells/mL) were added to each well in 96 well plate and treated with 10 uL test substance solution diluted as described above. Cells and compounds were incubated at 37° C. for 30 minutes. Cells were lysed and cAMP concentration was measured using DiscoveRx −XS+ cAMP assay kit (DiscoveRx Corporation Ltd., Fremont, Calif., USA, Cat #90-0075-03), following the manufacturer's protocol. GraphPad Prism software was used to calculate EC50 values using sigmoidal dose response curve fitting. The maximal amount of cAMP produced by forskolin was defined as 100%. CB1 or CB2 agonists reduced forskolin-stimulated cAMP signaling. The EC50 value of an agonist compound was defined as the concentration at which 50% of the forskolin-stimulated cAMP synthesis was inhibited.
Background: Cyclic AMP is a second messenger, typically raised through Gs and lowered through Gi signalling.

The next experiment addresses T3, human CB2 (hCB2) (Homo sapiens, UniProt P34972).
T3 construct: (cDNA clone) CNR0200000
As to the kind of experiment: 35S GTPγS binding assay, hCB2 agonist. As to conditions: GTPγS agonist, HEK-293 membranes; read-out: hCB2 EC50 (GTPyS ag). It is filed as biochemical. On the procedure:
cDNA expression clones for human CB1 (hCB1, Genbank Accession No. AY225225) and human CB2 (hCB2, Genbank Accession No. AY242132) expressed in vector pcDNA3.1+ were purchased from UMR cDNA Resource Center, Rolla, Mo. (Clone ID CNR01L000 for hCB1; CNR0200000 for hCB2).
(§2) Membranes were isolated from transfected cells as follows. Monolayers of cultured cells were washed twice with phosphate-buffered saline (PBS). […] Homogenates were centrifuged 10 minutes at 1000×g at 4° C. The supernatant was collected and was centrifuged for 1 hour at 40,000×g. The supernatant was then decanted and the resulting pellet was re-suspended in 20 mM HEPES, pH 7.4, 5 mM MgCl2, 1 mM EDTA, 10% sucrose with complete cocktail protease inhibitors. Protein concentration of membrane suspensions were measured by Bradford Protein Assay using bovine serum albumin as the standard (BioRad catalog #500-0006). Protein concentrations of membrane suspensions were adjusted with the final buffer in the range of 5 to 10 mg/mL and were stored at −80° C. until further use.
as §1
^35S GTPγS binding assays were performed by incubating recombinant cell membranes prepared above (5 μg) in the presence of scintillation proximity assay beads (SPA beads, Catalog #RPNQ0252 GE Healthcare, Buckinghamshire, England) in GTPγS binding buffer [50 mM HEPES (pH 7.4), 100 mM NaCl, 5 mM MgCl2, 0.001% saponin (Sigma catalog #S4521)] supplemented with 20 uM GDP (Sigma catalog #G7127) in the presence or absence of test compound. The reaction was carried out in 96-well microplates with 0.1 nM [^35S]GTPγS (specific activity=1250 Ci/mmol; Perkin Elmer catalog #NEG030X250UC) in a final volume of 100 uL. After a 90 min room temperature incubation, the reaction was analyzed using a scintillation counter (Perkin Elmer Microbeta instrument). Binding data were analyzed using GraphPad Prism.
A general note: GTPγS is a poorly hydrolysed GTP analogue; its binding reports G protein activation.

Experiment [1] concerns the target T4, recombinant human cannabinoid receptor CB2 (Homo sapiens, UniProt P34972).
T4 construct: (cDNA clone) CNR0200000
As to the kind of experiment: Cannabinoid receptor radioligand binding assay, [3H]-CP 55,940 displacement, hCB2. Here is the method:
as §2
A rapid filtration technique using Millipore FB filter plates (Catalog #MADVNOB) and filtration apparatus (Millipore system Catalog MAVM0960R) with vacuum aspiration was used to harvest and rinse labeled membranes (8 times with 0.2 mL of chilled binding buffer). […] Binding data were analyzed using GraphPad Prism (GraphPad Software, Inc. San Diego, Calif.).

T3 sequence (P34972 whole entry): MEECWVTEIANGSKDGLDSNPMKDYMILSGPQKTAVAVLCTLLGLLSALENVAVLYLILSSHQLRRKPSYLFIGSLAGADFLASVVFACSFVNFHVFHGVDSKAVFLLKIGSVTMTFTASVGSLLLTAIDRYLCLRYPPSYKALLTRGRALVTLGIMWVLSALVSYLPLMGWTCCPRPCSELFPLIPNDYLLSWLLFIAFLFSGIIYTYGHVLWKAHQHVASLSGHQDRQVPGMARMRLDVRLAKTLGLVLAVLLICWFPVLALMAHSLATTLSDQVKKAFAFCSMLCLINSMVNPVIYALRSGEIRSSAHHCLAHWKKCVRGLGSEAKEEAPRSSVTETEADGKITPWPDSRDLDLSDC
T4 sequence (P34972 whole entry): as above
T1 sequence (P34972 whole entry): as above
T2 sequence (P21554 whole entry): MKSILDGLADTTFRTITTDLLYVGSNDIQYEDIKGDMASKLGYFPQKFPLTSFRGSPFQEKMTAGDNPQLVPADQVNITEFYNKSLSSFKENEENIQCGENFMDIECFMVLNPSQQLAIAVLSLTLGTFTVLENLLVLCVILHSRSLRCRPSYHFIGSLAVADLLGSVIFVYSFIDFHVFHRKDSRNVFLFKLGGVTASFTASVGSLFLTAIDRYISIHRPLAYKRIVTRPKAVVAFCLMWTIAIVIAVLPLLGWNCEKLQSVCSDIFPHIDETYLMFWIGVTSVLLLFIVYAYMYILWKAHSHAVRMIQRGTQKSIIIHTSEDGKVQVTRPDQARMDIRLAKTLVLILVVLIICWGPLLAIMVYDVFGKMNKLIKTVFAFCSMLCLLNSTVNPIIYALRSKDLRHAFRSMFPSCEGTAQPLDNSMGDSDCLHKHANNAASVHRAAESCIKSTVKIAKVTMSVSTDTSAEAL

For the compound `COc1ccc(C(=O)c2cc3cc(C)n(CCN4CCNC4=O)c3s2)cc1` [Compound 61], the “hCB2 EC50 (cAMP ag, nM)” value on human CB2 receptors is listed as “NS (NS means “Not Significant,” which means less than 30% agonist activity when compared to the positive control.)”. The “hCB1 EC50 (cAMP ag, nM)” value at human CB1 receptors is “NS (NS means “Not Significant,” which means less than 30% agonist activity when compared to the positive control.)”.
Take `COc1ccc(C(=O)c2cc3cc(C)n(CCCNC(C)=O)c3s2)cc1` [Compound 63, N-(3-(2-(4-Methoxybenzoyl)-5-methyl-6H-thieno[2,3-b]pyrrol-6-yl)propyl)acetamide]: the “hCB2 EC50 (cAMP ag, nM)” value on human CB2 receptors was “NS (NS means “Not Significant,” which means less than 30% agonist activity when compared to the positive control.)”. Further, at human CB1 receptors, the “hCB1 EC50 (cAMP ag, nM)” value is on record as “NS (NS means “Not Significant,” which means less than 30% agonist activity when compared to the positive control.)”.
On to `COc1ccc(C(=O)c2cc3cc(C)n(CCCNS(=O)(=O)C(F)(F)F)c3s2)cc1` [Compound 75, 1,1,1-Trifluoro-N-(3-(2-(4-methoxybenzoyl)-5-methyl-6H-thieno[2,3-b]pyrrol-6-yl)propyl)methanesulfonamide], for which the “hCB2 EC50 (cAMP ag, nM)” value at human CB2 receptors is “NS (NS means “Not Significant,” which means less than 30% agonist activity when compared to the positive control.)”. Further, the “hCB1 EC50 (cAMP ag, nM)” value at human CB1 receptors is “NS (NS means “Not Significant,” which means less than 30% agonist activity when compared to the positive control.)”.
The EC50 is the concentration at which the effect is half-maximal. What is called IC50 is the concentration at which inhibition is half-maximal. Consider `CCOc1ccc(C(=O)c2cc3cc(C)n(CCCNS(C)(=O)=O)c3s2)cc1` [Compound 94, N-(3-(2-(4-Ethoxybenzoyl)-5-methyl-6H-thieno[2,3-b]pyrrol-6-yl)propyl)methanesulfonamide], for which the EC50 at human CB2 (hCB2) is less than 100 nM; at human CB2 receptors it was 100 to 1000 nM. Also, the “hCB1 EC50 (cAMP ag, nM)” value on human CB1 receptors was “NS (NS means “Not Significant,” which means less than 30% agonist activity when compared to the positive control.)”. For the same compound, the IC50 in experiment [1] was 100 to 1000 nM.
`CCOc1ccc(C(=O)c2cc3cc(C)n(CCCNS(C)(=O)=O)c3s2)c(F)c1` [Compound 95, N-(3-(2-(4-Ethoxy-2-fluorobenzoyl)-5-methyl-6H-thieno[2,3-b]pyrrol-6-yl)propyl)methanesulfonamide]: the figures for the EC50 on human CB2 (hCB2) and at human CB2 receptors were 100 to 1000 nM and less than 100 nM, respectively. In addition, on human CB1 receptors, the “hCB1 EC50 (cAMP ag, nM)” value is given as “NS (NS means “Not Significant,” which means less than 30% agonist activity when compared to the positive control.)”. Moreover, the IC50 in experiment [1] was in the range of 100 to 1000 nM.
Take `Cc1ccc(C(=O)c2cc3cc(C)n(CCCNS(C)(=O)=O)c3s2)c(F)c1` [Compound 97, N-(3-(2-(2-Fluoro-4-methylbenzoyl)-5-methyl-6H-thieno[2,3-b]pyrrol-6-yl)propyl)methanesulfonamide]: the EC50 on human CB2 (hCB2) and on human CB2 receptors was less than 100 nM in each case. The “hCB1 EC50 (cAMP ag, nM)” value at human CB1 receptors is listed as “NS (NS means “Not Significant,” which means less than 30% agonist activity when compared to the positive control.)”. Also, the IC50 in experiment [1] lay in the range of 100 to 1000 nM.
Regarding `COc1ncc(C(=O)c2cc3cc(C)n(CCN4CCOCC4)c3s2)cn1` [Compound 118, (2-Methoxypyrimidin-5-yl)(5-methyl-6-(2-morpholinoethyl)-6H-thieno[2,3-b]pyrrol-2-yl)methanone], the EC50 at human CB2 (hCB2) and on human CB2 receptors was 100 to 1000 nM in each case. The “hCB1 EC50 (cAMP ag, nM)” value at human CB1 receptors is recorded as “NS (NS means “Not Significant,” which means less than 30% agonist activity when compared to the positive control.)”.
